Laboratory results as given in article PMC6003104, “Discovery of a Short‐Chain Dehydrogenase from Catharanthus roseus that Produces a New Monoterpene Indole Alkaloid” (Chembiochem, 2018).

Target: T1, vitrosamine synthase (VAS, Cro013448) (Catharanthus roseus, UniProt A0A0C5DR25)
T1 construct: N-terminal His6 tag (pOPINF) kept; E. coli SoluBL21; calculated 34469 Da; monomer in solution, dimer in crystal; modelled residues 7-299
Assay: X-ray crystal structure, […] Å
Format: binding
Settings: co-purified from E. coli as holoenzyme; crystals pH 4.0, 20 °C; active site, next to Ser167/Tyr223/Lys227

T1 sequence (A0A0C5DR25 entry or part of it): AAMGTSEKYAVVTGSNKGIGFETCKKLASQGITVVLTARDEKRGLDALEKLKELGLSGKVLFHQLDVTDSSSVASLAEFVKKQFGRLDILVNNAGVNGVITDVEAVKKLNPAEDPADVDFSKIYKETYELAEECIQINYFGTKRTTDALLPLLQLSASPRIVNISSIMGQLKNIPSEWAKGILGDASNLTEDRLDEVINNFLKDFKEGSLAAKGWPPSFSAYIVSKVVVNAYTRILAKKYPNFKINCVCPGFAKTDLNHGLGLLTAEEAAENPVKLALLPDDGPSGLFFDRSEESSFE

## NC(=O)c1ccc[n+]([C@@H]2O[C@H](COP(=O)(O)OP(=O)(O)OC[C@H]3O[C@@H](n4cnc5c(N)ncnc54)[C@H](OP(=O)(O)O)[C@@H]3O)[C@@H](O)[C@H]2O)c1 [NADP+]
  X-ray crystal structure, 1.55 Å: the apo enzyme active site also had a high occupancy of NADP^+
